The source of these data is US9718826B2, “Imidazopyrazinone derivatives” (Merck Patent GmbH, priority 2013, dated 2017).

T2 sequence (Q9H2K2 873-1166): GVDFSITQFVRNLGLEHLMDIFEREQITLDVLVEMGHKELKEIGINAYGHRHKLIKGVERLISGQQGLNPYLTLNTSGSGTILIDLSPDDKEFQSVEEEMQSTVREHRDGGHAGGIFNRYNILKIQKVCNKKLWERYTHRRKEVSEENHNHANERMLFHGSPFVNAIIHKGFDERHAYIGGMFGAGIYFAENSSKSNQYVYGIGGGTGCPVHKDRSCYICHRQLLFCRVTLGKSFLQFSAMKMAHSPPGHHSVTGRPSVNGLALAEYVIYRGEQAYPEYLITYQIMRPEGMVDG
T4 sequence (O95271 1023-1327): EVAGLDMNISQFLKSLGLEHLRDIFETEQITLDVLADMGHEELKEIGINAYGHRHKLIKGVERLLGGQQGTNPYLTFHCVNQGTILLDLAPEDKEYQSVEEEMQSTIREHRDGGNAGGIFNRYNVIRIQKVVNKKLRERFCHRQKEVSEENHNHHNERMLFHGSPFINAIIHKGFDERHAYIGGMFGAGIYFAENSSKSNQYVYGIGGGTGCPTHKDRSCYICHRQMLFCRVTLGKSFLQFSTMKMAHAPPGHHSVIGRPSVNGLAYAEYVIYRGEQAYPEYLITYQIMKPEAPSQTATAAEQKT
T1 sequence (O95271 1023-1327): as above

One test has as its system DLD-1-cancer cells.
Test: not given
The note with it: Huang et al., 2009; cited from earlier work.
On to `Oc1nc(-c2ccc(C(F)(F)F)cc2)nc2c1CSCC2` [XAV939], for which the “growth of DLD-1-cancer cells” value is recorded as “inhibits growth”.

In the next test the test system is β-catenin.
Test: not given
The note with it: Huang et al., 2009; cited from earlier work.
On to `Oc1nc(-c2ccc(C(F)(F)F)cc2)nc2c1CSCC2` [XAV939], for which the “Wnt-stimulated accumulation of β-catenin” value is listed as “blocked”.

Another test concerns the target T1, GST-tagged Tankyrase-1 (1023-1327 aa) (Homo sapiens, UniProt O95271).
T1 construct: GST-tagged Tankyrase-1 (1023-1327 aa)
The experiment in a line: Tankyrase 1 autoparsylation assay (HTRF). Format: biochemical. To be noted: read-out: IC50 TNKS1 enzyme assay. As for the experimental part: (§1) Biochemical activity testing of Tankyrase 1 and 2: Autoparsylation assay
(§2) The autoparsylation assay is run in two steps: the enzymatic reaction in which GST-tagged Tankyrase-1, resp Tankyrase-2 transferred biotinylated ADP-ribose to itself from biotinylated NAD as co-substrate and the detection reaction where a time resolved FRET between cryptate labelled anti-GST bound to the GST tag of the enzyme and Xlent® labelled-streptavidin bound the biotin-parsylation residue is analysed. The autoparsylation activity was detectable directly via the increase in HTRF signal.
(§3) The autoparsylation assay is performed as 384-well HTRF® (Cisbio, Codolet, France) assay format in Greiner low volume nb 384-well microtiter plates and is used for high throughput screen. 250 nM GST-tagged Tankyrase-1 (1023-1327 aa), respectively about 250 nM GST-tagged Tankyrase-2 (873-1166 aa) and 5 μM bio-NAD (Biolog, Life science Inst., Bremen, Germany) as co-substrate are incubated in a total volume of 5 μl (50 mM HEPES, 4 mM Mg-chloride, 0.05% Pluronic F-68, 1.4 mM DTT, 0.5% DMSO, pH 7.7) in the absence or presence of the test compound (10 dilution concentrations) for 90 min at 30° C. The reaction is stopped by the addition of 1 μl 50 mM EDTA solution. 2 μl of the detection solution (1.6 μM SA-Xlent® (Cisbio, Codolet, France), 7.4 nM Anti-GST-K® (Eu-labelled anti-GST, Cisbio, Codolet, France) in 50 mM HEPES, 800 mM KF, 0.1% BSA, 20 mM EDTA, 0.1% CHAPS, pH 7.0) are added. After 1 h incubation at room temperature the HTRF is measured with an Envision multimode reader (Perkin Elmer LAS Germany GmbH) at excitation wavelength 340 nm (laser mode) and emission wavelengths 615 nm and 665 nm. The ratio of the emission signals is determined. The full value used is the inhibitor-free reaction. The pharmacological zero value used is XAV-939 (Tocris) in a final concentration of 5 μM. The inhibitory values (IC50) are determined using either the program Symyx Assay Explorer® or Condosseo® from GeneData.
For the molecule `Cc1ccc(-c2cn3cncc3c(=O)[nH]2)cc1` [Compound A1, 6-p-tolyl-7H-imidazo[1,5-a]pyrazin-8-one], the half-maximal inhibitory concentration (IC50) is 300 to 3000 nM.

For the molecule `CC(C)(C)c1ccc(-c2cn3cncc3c(=O)[nH]2)cc1` [Compound A2, 6-(4-tert-Butyl-phenyl)-7H-imidazo[1,5-a]pyrazin-8-one], the IC50 is less than 300 nM.

For `O=c1[nH]c(-c2ccc(C(F)(F)F)cc2)cn2cncc12` [Compound A3, 6-(4-Trifluoromethyl-phenyl)-7H-imidazo[1,5-a]pyrazin-8-one], the IC50 was in the range of 300 to 3000 nM.

Another test concerns the target T2, GST-tagged Tnks-2 (873-1166 aa) (Homo sapiens, UniProt Q9H2K2).
T2 construct: GST-tagged Tnks-2 (873-1166 aa, prepared in-house); made in house
Put plainly: TNKS2 activity ELISA (autoparsylation assay). Format: biochemical.
Conditions: not given
As for the experimental part: (§4) Description of the TNKS1 and TNKS2 ELISA Assay
(§5) Biochemical Activity Testing of TNKS 1 and 2: Activity ELISA (Autoparsylation Assay)
(§6) For analysis of autoparsylation activity of TNKS 1 and 2 an activity ELISA is performed: In the first step GST tagged TNKS is captured on a Glutathione coated plate. Then the activity assay with biotinylated NAD is performed in the absence/presence of the compounds. During the enzymatic reaction GST tagged TNKS transfers biotinylated ADP-ribose to itself from biotinylated NAD as co-substrate. For the detection streptavidin-HRP conjugate is added that binds to the biotinylated TNKS and is thereby captured to the plates. The amount of biotinylated resp. autoparsylated TNKS is detected with a luminescence substrate for HRP. The level of the luminescence signal correlates directly with the amount of autoparsylated TNKS and therefore with activity of TNKS.
(§7) The activity ELISA is performed in 384 well Glutathione coated microtiter plates (Express capture Glutathione coated plate, Biocat, Heidelberg, Germany). The plates are pre-equilibrated with PBS. Then the plates are incubated with 50 μl 20 ng/well GST-tagged Tnks-1 (1023-1327 aa, prepared in-house), respectively GST-tagged Tnks-2 (873-1166 aa, prepared in-house) in assay buffer (50 mM HEPES, 4 mM Mg-chloride, 0.05% Pluronic F-68, 2 mM DTT, pH 7.7) overnight at 4° C. The plates are washed 3 times with PBS-Tween-20. The wells are blocked by incubation at room temperature for 20 minutes with 50 μl blocking buffer (PBS, 0.05% Tween-20, 0.5% BSA). Afterwards the plates are washed 3 times with PBS-Tween-20. The enzymatic reaction is performed in 50 μl reaction solution (50 mM HEPES, 4 mM Mg-chloride, 0.05% Pluronic F-68, 1.4 mM DTT, 0.5% DMSO, pH 7.7) with 10 μM bio-NAD (Biolog, Life science Inst., Bremen, Germany) as co-substrate in the absence or presence of the test compound (10 dilution concentrations) for 1 hour at 30° C. The reaction is stopped by 3 times washing with PBS-Tween-20. For the detection 50 μl of 20 ng/μl Streptavidin, HRP conjugate (MoBiTec, Göttingen, Germany) in PBS/0.05% Tween-20/0.01% BSA are added and the plates are incubated for 30 minutes at room temperature. After three times washing with PBS-Tween-20 50 μl of SuperSignal ELISA Femto Maximum sensitivity substrate solution (ThermoFisherScientific (Pierce), Bonn, Germany) are added. Following a 1 minute incubation at room temperature luminescence signals are measured with an Envision multimode reader (Perkin Elmer LAS Germany GmbH) at 700 nm. The full value used is the inhibitor-free reaction. The pharmacological zero value used is XAV-939 (Tocris) in a final concentration of 5 μM. The inhibitory values (IC50) are determined using either the program Symyx Assay Explorer® or Condosseo® from GeneData.
In the case of `Cc1ccc(-c2cn3cncc3c(=O)[nH]2)cc1` [Compound A1, 6-p-tolyl-7H-imidazo[1,5-a]pyrazin-8-one], the IC50 fell in the range of 300 to 3000 nM.

In turn, `CC(C)(C)c1ccc(-c2cn3cncc3c(=O)[nH]2)cc1` [Compound A2, 6-(4-tert-Butyl-phenyl)-7H-imidazo[1,5-a]pyrazin-8-one] came in with an IC50 of less than 300 nM.

As for `O=c1[nH]c(-c2ccc(C(F)(F)F)cc2)cn2cncc12` [Compound A3, 6-(4-Trifluoromethyl-phenyl)-7H-imidazo[1,5-a]pyrazin-8-one], the IC50 was less than 300 nM.

For another test, the system named is Tankyrases. The experiment in a line: Cellular inhibition of Tankyrase, Axin2 level in DLD1 cells (Luminex). The test is classed as cell-based. The note with it: Axin2 increase, 24 hours, read-out: EC50 [M] TNKS cellular assay. As for the experimental part: Measurement of Cellular Inhibition of Tankyrase
Since Tankyrases have been described to modulate cellular level of Axin2 (Huang et al., 2009; Nature) the increase of Axin2 level is used as read-out for determination of cellular inhibition of Tankyrases in a Luminex based assay.
Cells of the colon carcinoma cell line DLD1 are plated in 96 well plates with 1.5×10^4 cells per well. Next day, cells are treated with a serial dilution of test compound in seven steps as triplicates with a final DMSO concentration of 0.3%. After 24 hours, cells are lysed in lysis buffer (20 mM Tris/HCl pH 8.0, 150 mM NaCl, 1% NP40, 10% Glycerol) and lysates are cleared by centrifugation through a 96 well filter plate (0.65 μm). Axin2 protein is isolated from cell lysates by incubation with a monoclonal anti-Axin2 antibody (R&D Systems #MAB6078) that is bound to fluorescent carboxybeads. Then, bound Axin2 is specifically detected with a polyclonal anti-Axin2 antibody (Cell Signaling #2151) and an appropriate PE-fluorescent secondary antibody. The amount of isolated Axin2 protein is determined in a Luminex^200 machine (Luminex Corporation) according to the manufacturer's instruction by counting 100 events per well. Inhibition of Tankyrase by test compounds results in higher levels of Axin2 which directly correlates with an increase of detectable fluorescence. As controls cells are treated with solvent alone (neutral control) and with a Tankyrase reference inhibitor IWR-2 (3E-06 M) which refers as control for maximum increase of Axin2. For analysis, the obtained data are normalized against the untreated solvent control and fitted for determination of the EC50 values using the Assay Explorer software (Accelrys).
For `CC(C)(C)c1ccc(-c2cn3cncc3c(=O)[nH]2)cc1` [Compound A2, 6-(4-tert-Butyl-phenyl)-7H-imidazo[1,5-a]pyrazin-8-one], the EC50 lay in the range of 3e-07 to 3e-06 M.

Another test deals with T3, GST-tagged Tankyrase-2 (873-1166 aa) (Homo sapiens, UniProt Q9H2K2).
T3 construct: GST-tagged Tankyrase-2 (873-1166 aa)
T3 sequence (Q9H2K2 873-1166): as the sequence (Q9H2K2 873-1166) above
Put plainly: Tankyrase 2 autoparsylation assay (HTRF). The test is classed as biochemical. The note with it: read-out: IC50 TNKS2 enzyme assay. As for the experimental part: as §1, §2, §3
For the molecule `Cc1ccc(-c2cn3cncc3c(=O)[nH]2)cc1` [Compound A1, 6-p-tolyl-7H-imidazo[1,5-a]pyrazin-8-one], the IC50 was 300 to 3000 nM.

As to `CC(C)(C)c1ccc(-c2cn3cncc3c(=O)[nH]2)cc1` [Compound A2, 6-(4-tert-Butyl-phenyl)-7H-imidazo[1,5-a]pyrazin-8-one], the IC50 lay within 300 to 3000 nM.

As to `O=c1[nH]c(-c2ccc(C(F)(F)F)cc2)cn2cncc12` [Compound A3, 6-(4-Trifluoromethyl-phenyl)-7H-imidazo[1,5-a]pyrazin-8-one], the IC50 was 300 to 3000 nM.

A further test concerns the target T4, GST-tagged Tnks-1 (1023-1327 aa) (Homo sapiens, UniProt O95271).
T4 construct: GST-tagged Tnks-1 (1023-1327 aa, prepared in-house); made in house
The experiment in a line: TNKS1 activity ELISA (autoparsylation assay). Format: biochemical.
Conditions: not given
As for the experimental part:
as §4, §5, §6, §7
For `Cc1ccc(-c2cn3cncc3c(=O)[nH]2)cc1` [Compound A1, 6-p-tolyl-7H-imidazo[1,5-a]pyrazin-8-one], the IC50 lay within 300 to 3000 nM.

Molecule `CC(C)(C)c1ccc(-c2cn3cncc3c(=O)[nH]2)cc1` [Compound A2, 6-(4-tert-Butyl-phenyl)-7H-imidazo[1,5-a]pyrazin-8-one] had an IC50 of less than 300 nM.

For the molecule `O=c1[nH]c(-c2ccc(C(F)(F)F)cc2)cn2cncc12` [Compound A3, 6-(4-Trifluoromethyl-phenyl)-7H-imidazo[1,5-a]pyrazin-8-one], the IC50 was less than 300 nM.

The next test deals with T5, His-tagged Parp-1 (Homo sapiens, UniProt P09874).
T5 construct: purchased Enzo Life Sciences GmbH, Lörrach, Germany
T5 sequence (P09874 whole entry): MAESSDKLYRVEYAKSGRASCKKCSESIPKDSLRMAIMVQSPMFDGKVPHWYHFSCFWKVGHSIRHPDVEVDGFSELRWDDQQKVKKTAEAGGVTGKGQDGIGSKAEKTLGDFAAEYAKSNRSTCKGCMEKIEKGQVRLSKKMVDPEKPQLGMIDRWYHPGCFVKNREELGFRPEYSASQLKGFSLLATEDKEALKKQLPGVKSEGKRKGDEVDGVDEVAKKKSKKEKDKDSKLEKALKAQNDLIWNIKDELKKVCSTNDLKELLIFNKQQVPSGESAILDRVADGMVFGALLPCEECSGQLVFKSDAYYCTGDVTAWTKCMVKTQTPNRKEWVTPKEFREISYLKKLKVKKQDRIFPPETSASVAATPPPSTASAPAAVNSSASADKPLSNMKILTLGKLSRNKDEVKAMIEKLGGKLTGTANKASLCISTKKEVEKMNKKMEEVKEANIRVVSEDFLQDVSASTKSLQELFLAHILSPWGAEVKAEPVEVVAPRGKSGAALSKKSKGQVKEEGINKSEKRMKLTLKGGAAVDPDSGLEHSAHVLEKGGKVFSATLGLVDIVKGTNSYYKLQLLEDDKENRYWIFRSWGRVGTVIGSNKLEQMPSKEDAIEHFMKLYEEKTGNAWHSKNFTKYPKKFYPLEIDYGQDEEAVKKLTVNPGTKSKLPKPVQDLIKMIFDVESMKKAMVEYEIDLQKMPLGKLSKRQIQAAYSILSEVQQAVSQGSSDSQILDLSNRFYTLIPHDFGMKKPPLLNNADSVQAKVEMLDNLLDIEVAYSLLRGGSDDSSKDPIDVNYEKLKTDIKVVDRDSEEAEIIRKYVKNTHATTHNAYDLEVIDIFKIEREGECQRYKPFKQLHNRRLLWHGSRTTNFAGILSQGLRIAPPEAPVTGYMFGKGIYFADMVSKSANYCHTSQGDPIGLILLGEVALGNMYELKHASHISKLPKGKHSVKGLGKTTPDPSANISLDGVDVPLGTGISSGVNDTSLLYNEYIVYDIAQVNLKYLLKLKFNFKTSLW
The experiment in a line: PARP-1 autoparsylation assay (HTRF). To be noted: PARP-1 autoparsylation HTRF. The test is classed as biochemical. From the text:
Description of the PARP1 Assay
Biochemical Activity Testing of PARP-1: Autoparsylation Assay
The autoparsylation assay is run in two steps: the enzymatic reaction in which His-tagged Parp-1 transfers biotinylated ADP-ribose/ADP-ribose to itself from biotinylated NAD/NAD as co-substrate and the detection reaction where a time resolved FRET between cryptate labelled anti-His antibody bound to the His tag of the enzyme and Xlent® labelled-streptavidin bound the biotin-parsylation residue is analysed. The autoparsylation activity is detectable directly via the increase in HTRF signal.
The autoparsylation assay is performed as 384-well HTRF® (Cisbio, Codolet, France) assay format in Greiner low volume nb 384-well microtiter plates. 35 nM His-tagged Parp-1 (human, recombinant, Enzo Life Sciences GmbH, Lörrach, Germany) and a mixture of 125 nM bio-NAD (Biolog, Life science Inst., Bremen, Germany) and 800 nM NAD as co-substrate are incubated in a total volume of 6 μl (100 mM Tris/HCl, 4 mM Mg-chloride, 0.01% IGEPAL® CA630, 1 mM DTT, 0.5% DMSO, pH 8, 13 ng/μl activated DNA (BPS Bioscience, San Diego, US)) in the absence or presence of the test compound (10 dilution concentrations) for 150 min at 23° C. The reaction is stopped by the addition of 4 μl of the Stop/detection solution (70 nM SA-Xlent® (Cisbio, Codolet, France), 2.5 nM Anti-His-K® (Eu-labelled anti-His, Cisbio, Codolet, France) in 50 mM HEPES, 400 mM KF, 0.1% BSA, 20 mM EDTA, pH 7.0). After 1 h incubation at room temperature the HTRF is measured with an Envision multimode reader (Perkin Elmer LAS Germany GmbH) at excitation wavelength 340 nm (laser mode) and emission wavelengths 615 nm and 665 nm. The ratio of the emission signals is determined. The full value used is the inhibitor-free reaction. The pharmacological zero value used is Olaparib (LClabs, Woburn, US) in a final concentration of 1 μM. The inhibitory values (IC50) are determined using either the program Symyx Assay Explorer® or Condosseo® from GeneData.
`Cc1ccc(-c2cn3cncc3c(=O)[nH]2)cc1` [Compound A1, 6-p-tolyl-7H-imidazo[1,5-a]pyrazin-8-one] had an IC50 of 3000 to 50000 nM.

Consider `CC(C)(C)c1ccc(-c2cn3cncc3c(=O)[nH]2)cc1` [Compound A2, 6-(4-tert-Butyl-phenyl)-7H-imidazo[1,5-a]pyrazin-8-one], for which the IC50 was 3000 to 50000 nM.
